{
  "source": "patent US20080064643A1",
  "about": "“Myd88 Homodimerization Inhibitors” (priority 2004, published 2008)",
  "key": {"NF-kB [1]": {"tested_on": "NF-kB", "experiment": "NF-kB inhibition assay in HeLa cells stimulated with IL1α (Trans AM ELISA)", "assay_type": "cell-based, Human", "settings": "for inhibition at 100 µM: Homo sapiens, HeLa, read-out: % NF-κB INHIBITION; for % NF-κB INHIBITION: HeLa cells, compound 100 μM for 6 hours, then 5 ng/ml IL1α for 30 minutes", "procedure": "The activation of NF-kB is an event that takes place downstream of the homodimerisation of MyD88 and its binding to the intracytoplasmic portions of number of receptor complexes. The ability of the compounds which are the subject of the present invention to inhibit the activation of NF-kB downstream of the amplification cascade of the signal triggered by IL1α was therefore evaluated.\nAll the molecules were assayed beforehand with the MTT cell viability test, verifying that the dose of compound used in the NF-kB inhibition assay was lower than the toxic dose.\nHeLa* cells were cultured in EMEM (EBSS) medium supplemented with 2 mM glutamine+1% non-essential amino acids+7.5% FBS (Foetal Bovine Serum)+10 ml/l of a solution of penicillin-streptomycin (10,000 units/ml penicillin and 10 mg/ml streptomycin).\n(All cell media and the various components were purchased from Sigma-Aldrich. *HeLa cell line Human Negroid cervix epithelioid carcinoma Human from SIGMA ALDRICH ECACC Ref No: 93021013. IL1α*=SIGMA I2778 Interleukin-1-alpha IL1a Human, recombinant expressed in E. coli).\nThe cells were used after a number of cell passages ranging from 14 to 35.\nCells are seeded in 6-well plates at a density of 300,000 cells/well in complete medium and incubated overnight at 37° C., 5% CO2.\nAfter approximately 18 hours, the complete medium is eliminated, cells are washed twice with PBS 1× and 1 ml of FBS-free medium is added to each well.\nThe molecules to be tested are subsequently added to the medium at a concentration of 100 μM. Cells are then incubated for 6 hours at 37° C., 5% CO2.\nAll the molecules assayed were dissolved in DMSO.\nAn equivalent volume of DMSO is added to the negative controls, i.e. cells not treated with the molecules.\nAt the end of the treatment with the molecules, the cells are stimulated with 5 ng/ml of IL1α* for 30 minutes and incubated at 37° C., 5% CO2.\nAn equivalent volume of PBS/BSA 0.4% (solution used to dissolve IL1α) is added to the negative controls, i.e. non-stimulated cells.\nAfter stimulation with IL1α the cells are washed twice with PBS 1× and collected by cell scraping.\nThe cells are then centrifuged at 800 rpm, 4° C., 10 min. The supernatants are eliminated. The pellets are re-suspended in lysis buffer**, incubated for 10 minutes at 4° C. and centrifuged at maximum speed at 4° C. The pellets are eliminated and the supernatants frozen at −80° C.\nThe total protein content is subsequently measured by Bradford Assay using, as the standard, BSA at known concentration, and as used in the ELISA assay as described here below.\nActivation/inhibition of NF-kB is evaluated using the Trans AM# (Active Motif) kit.\nIl Trans AM kit permits detection of the activation of NF-kB induced by IL1α, through a calorimetric reaction that is obtained at the end of a routine ELISA assay.\nThe kit provides 96-well plates derivatised with an oligonucleotide that contains the consensus site of NF-kB (5′-GGGACTTT-CC-3′). This oligonucleotide specifically binds only the active form of NF-kB which is released after stimulation with IL1α. The first antibody supplied for detecting NF-kB recognises the p65 epitope which is accessible only when the transcriptional factor is active and binds its target DBNA sequence.\nThe secondary antibody supplied is conjugated to horse radish peroxidase which, with the addition of a chromogenic substrate, makes it possible to obtain a calorimetric reaction that can be evaluated spectrophotometrically at the wavelength of 450 nm.\nThe samples are assayed in duplicate and 10 μg of each extract are loaded into each well.\nAt the end of the assay, the % inhibition is calculated by processing the values obtained in the spectrophotometric readings as follows:\nIL*-C*/IL-C=% activation of NF-kB.\nIL*=A450 of cells stimulated and treated with the study molecules.\nC*=A450 of cells not stimulated and treated with the study molecules.\nIL=A450 of cells stimulated with IL1α and not treated with the molecules.\nC=A450 of cells not stimulated and not treated. […]"}, "[2]": {"tested_on": "IL-1-responsive human IL-8 promoter gene region", "experiment": "reporter gene assay (RGA) of luciferase activity in CaCo2 cells stimulated with IL-1", "assay_type": "cell-based", "settings": "substance 100 μM, IL-1 500 pg/mL", "description": "It is based on transient co-transfection of CaCo2 human intestinal epithelial cells with a reporter gene plasmid whose luciferase reporter gene expression is under control of the IL-1-responsive human IL-8 promoter gene region. The second plasmid in co-transfection is a vector coding for a control Renilla luciferase reporter gene, whose constitutive expression is used to estimate unspecific cellular toxicity of tested compounds. The read-out of the assay has been defined as the Relative Response Ratio (RRR) for the firefly and the Renilla luciferase, as follows: [formula] where the experimental sample is the value in cont per second (cps) of the experimental reporter luminescence, as defined for any unknown sample. The positive control is the value in cps of the reporter luminescence, as defined for the sample which identifies the maximal induction by IL-1 in the absence of reference inhibitor compound. The negative control is the value in cps of the reporter luminescence, as defined for the sample which identifies the absence of induction by IL-1. For the non-inducible Renilla luciferase, the RRR has been defined as follows: [formula]\nThe RGA is the read-out of the above experiments, and it was run as follows:\nPlate 6×10^6 adherent CaCo2 cells on 10 cm plates. After 18-24 hours culture medium is changed, using 9 mL of D-MEM+glutamine 580 mg/L, without FBS and antibiotics. For each plate, 26 μg of IL-1-responsive reporter vector DNA (pGL2-NA-INT) and 4 μg of control reporter vector DNA are then dissolved in 500 μL Optimem (Invitrogen). Lipofectamine 2000 Reagent (Invitrogen) 30 μL are then added to 500 μL Optimem; this latter reaction mix is incubated for 5 min at room temperature. The DNA mix is then added drop by drop to the Lipofectamine 2000 mix. The resulting DNA/Lipofectamine mix is incubated for 20 min at room temperature and it is added drop by drop over the culture plate, by gently rocking the plate itself. Culture plates are then incubated for about 6 hours at 37° C. and 5% CO2. Cells are then trypsinized and transferred in 96-well plates, at 5×10^4 cells/well in 100 μL of culture medium (D-MEM with FBS 1%,+glutamine 580 mg/L), as required by the experimental design. Afterwards, cells were incubated for 16-18 hours at 37° C. and 5% CO2 and treated as follows: • Take out culture medium from each well. • Add 60 μL of fresh culture medium to control cell wells. • Add 40 μL of fresh culture medium to IL-1-treated wells. • Add 40 μL of fresh culture medium and 20 μL of substance at a concentration of 100 μM and 0.4% DMSO to inhibitor substance wells. • Add 20 μL fresh culture medium supplemented with 0.4% DMSO in IL-1-treated wells and in control cell wells. • Incubate at 37° C. and 5% CO2 for 4 hours. • After 2 hours, stimulate with 20 μL of IL-1 (500 pg/mL) for two additional hours at 37° C. and 5% CO2. • Appropriate amount of luciferase standard protein is included in additional assay wells. • Add for each well 80 μL of firefly luciferase substrate (Dual-Glo Luciferase Assay System reagent). • Incubate at room temperature for 10 min. • Read the firefly luciferase output on the Veritas lumenometer (Turner BioSystems). • Immediately add to each well 80 μL of the Renilla luciferase substrate (Dual-Glo Luciferase Assay System reagent). • Incubate at room temperature for 10 min. • Read the Renilla luciferase output on the Veritas lumenometer (Turner BioSystems).\nCompounds considered positive in the RGA assay were those that gave a percentage inhibition ≧20%."}, "NF-kB [3]": {"tested_on": "NF-kB", "experiment": "NF-kB activation inhibition, preliminary studies on natural peptides (Table 1)", "assay_type": "cell-based", "settings": "conditions not stated", "description": "(§1) Preliminary studies on the inhibition of the homodimerisation of MyD88 have been conducted by the present inventors using a co-immunoprecipiation assay on a series of natural peptides (synthesised as acetylamide at the N terminal and as primary amide at the carboxyl terminal) comprising the consensus sequence of the BB loop. […] The protein myc-MyD88 is expressed temporarily in HEK293 cells and isolated from cell extracts by immunoprecipitation with the anti-myc antibody. The immunoprecipitated protein is incubated with purified protein GST-MyD88TIR for 60 min at 4° C. in the presence or absence of the synthetic peptide (final concentration 200 μM). After suitable washings, the proteins absorbed to the resin used for the immunoprecipitation are solubilised with SDS and analysed by Western blot for the presence of myc-MyD88 and GST-MyD88TIR. Percentage inhibition of NF-kB activation is also given for these two peptides"}, "MyD88 homodimer": {"target": "T1, MyD88 homodimer (Homo sapiens, UniProt Q99836)", "T1 construct": "incubated with purified protein GST-MyD88TIR; made in house; host or cells: HEK293 (myc-MyD88, transient expression)", "T1 sequence (Q99836 whole entry)": "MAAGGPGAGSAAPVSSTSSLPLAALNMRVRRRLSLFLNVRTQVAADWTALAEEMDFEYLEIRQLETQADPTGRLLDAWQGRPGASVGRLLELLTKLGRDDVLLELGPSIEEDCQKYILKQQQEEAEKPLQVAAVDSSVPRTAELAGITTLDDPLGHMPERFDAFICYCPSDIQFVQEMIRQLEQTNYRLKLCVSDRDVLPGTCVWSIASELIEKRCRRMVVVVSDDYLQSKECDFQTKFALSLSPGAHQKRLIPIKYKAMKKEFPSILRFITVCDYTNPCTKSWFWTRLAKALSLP", "experiment": "co-immunoprecipitation assay of MyD88 homodimerisation (myc-MyD88 / GST-MyD88TIR, Western blot)", "assay_type": "binding", "settings": "residual interaction in the MyD88 homodimer as percentage of the untreated protein; peptide 200 μM, 60 min at 4° C.", "description": "as §1"}},
  "note": "Starred links: 1 amine or outer side, 2 acyl side, 3 side chain; linkers in the order of their positions; H or OH if unused. Non-standard residues stand in square brackets, D forms with d. Residues, ends and D or L forms follow the SMILES beside them. *: point of attachment. AzaVal = azavaline, CC(C)N(N[*:1])C(=O)[*:2]; X1 = NC(=O)CN1CC[C@@]2(CCCN2*)C1=O; azaLeu = CC(C)CN(N[*:1])C(=O)[*:2]",
  "data": [
    {"molecule": "COc1ccc(C(=O)N2CCC[C@]23CCN(CC(=O)N[C@H](C(N)=O)[C@@H](C)O)C3=O)cc1NC(=O)c1cccnc1", "note": "[ST2792, PAM9-SP02-Beta2-Thr-NH2]", "values": [
      {"measurement": "inhibition at 100 µM", "setting": "NF-kB [1]", "value": 22, "unit": "%"}
    ]},
    {"molecule": "CC(C)[C@H](NC(=O)[C@H](CC(=O)O)NC(=O)c1cccnc1)C(=O)N[C@H](C(=O)N1CCC[C@]12CCN(CC(N)=O)C2=O)C(C)C", "note": "[ST2794, PAM9-Asp-Val-Val-Beta2-NH2]", "values": [
      {"measurement": "% NF-κB INHIBITION", "setting": "NF-kB [1]", "value": 25, "unit": "%"}
    ]},
    {"molecule": "CC(=O)N[C@H](CCCNC(=N)N)C(=O)N[C@H](CC(=O)O)C(=O)N[C@@H](C(=O)N[C@H](CC(C)C)C(=O)N1CCC[C@@]12CCN(CC(N)=O)C2=O)C(C)C", "note": "[ST2799, Ac-arg-asp-val-leu-Beta1-NH2] (Ac-[dR][dD][dV][dL]-X1)", "values": [
      {"measurement": "% NF-κB INHIBITION", "setting": "NF-kB [1]", "value": 23, "unit": "%"}
    ]},
    {"molecule": "CC(=O)NCC(=O)N1CCC[C@H]1C(=O)Nc1cccc(C(=O)N[C@@H](CCCNC(=N)N)C(N)=O)c1C", "note": "[ST2864, Ac-Gly-Pro-SP30-Arg-NH2]", "values": [
      {"measurement": "inhibition at 100 µM", "setting": "NF-kB [1]", "value": 16, "unit": "%"}
    ]},
    {"molecule": "Ac-Arg-Asp-AzaLeu-Val-Pro-Gly-NH2 (Ac-RD[azaLeu]VPG-NH2; SMILES CC(=O)N[C@@H](CCCNC(=N)N)C(=O)N[C@@H](CC(=O)O)C(=O)NN(CC(C)C)C(=O)N[C@H](C(=O)N1CCC[C@H]1C(=O)NCC(N)=O)C(C)C) [ST2928]", "values": [
      {"measurement": "% INHIBITION", "setting": "[2]", "value": 29, "unit": "%"}
    ]},
    {"molecule": "Ac-Arg-Asp-Azagly-Val-Pro-Gly-NH2 [ST2927]", "values": [
      {"measurement": "% INHIBITION", "setting": "[2]", "value": 22, "unit": "%"}
    ]},
    {"molecule": "Ac-Arg-Asp-Val-AzaVal-Pro-Gly-NH2 [ST2920]", "values": [
      {"measurement": "% INHIBITION", "setting": "[2]", "value": 25, "unit": "%"}
    ]},
    {"molecule": "Ac-Azagly-Azagly-pro-leu-val-asp-arg-NH2 [ST3032]", "values": [
      {"measurement": "% INHIBITION", "setting": "[2]", "value": 21, "unit": "%"}
    ]},
    {"molecule": "Ac-RDVLPGT-NH2 [ST2348]", "values": [
      {"measurement": "% NF-kB inhibition", "setting": "NF-kB [3]", "value": 37, "unit": "%"},
      {"measurement": "% residual interaction", "setting": "MyD88 homodimer", "value": 29, "unit": "%"}
    ]},
    {"molecule": "Ac-RDVVPGG-NH2 [ST2350]", "values": [
      {"measurement": "% NF-kB inhibition", "setting": "NF-kB [3]", "value": 20, "unit": "%"},
      {"measurement": "% residual interaction", "setting": "MyD88 homodimer", "value": 18, "unit": "%"}
    ]},
    {"molecule": "Ac-thr-Azagly-pro-leu-val-asp-arg-NH2 [ST2930]", "values": [
      {"measurement": "% INHIBITION", "setting": "[2]", "value": 24, "unit": "%"}
    ]},
    {"molecule": "Ac-thr-gly-pro-leu-val-asp-arg-NH2 [ST2565]", "values": [
      {"measurement": "% NF-κB INHIBITION", "setting": "NF-kB [1]", "value": 30, "unit": "%"}
    ]},
    {"molecule": "Ap-PTDLVRG-NH2 [ST2403, reference compound]", "values": [
      {"measurement": "inhibition of NF-κB activation", "setting": "NF-kB [1]; HeLa cells stimulated with IL-1α", "value": "inactive"}
    ]},
    {"molecule": "H-Arg-Gly-AzaVal-Val-Pro-Gly-NH2 (H-RG[AzaVal]VPG-NH2; SMILES CC(C)[C@H](NC(=O)N(NC(=O)CNC(=O)[C@@H](N)CCCNC(=N)N)C(C)C)C(=O)N1CCC[C@H]1C(=O)NCC(N)=O) [ST2926]", "values": [
      {"measurement": "% INHIBITION", "setting": "[2]", "value": 20, "unit": "%"}
    ]}
  ]
}
